The target in the test is Human immunodeficiency virus type 1 protease (Human immunodeficiency virus 1, UniProt Q72874). Description: Inhibition of HIV-1 protease was determined in vitro.

As to `CC(C)(C)NC(=O)[C@@H]1C[C@@H]2CCCC[C@@H]2CN1C[C@@H](O)[C@H](Cc1ccccc1)NC(=O)[C@@H](NC(=O)c1ccc2ccccc2n1)[C@H]1CCOC1` [(3S,4aS,8aS)-N-tert-butyl-2-[(2R,3S)-2-hydroxy-3-[(2S)-2-[(3R)-oxolan-3-yl]-2-(quinolin-2-ylformamido)acetamido]-4-phenylbutyl]-decahydroisoquinoline-3-carboxamide], inhibition was half-maximal at 0.05 nM (IC50).

The values are drawn from BindingDB's records for doi:10.1021/jm00002a012 (Merck Research Laboratories, 1995).
